According to patent US20250082752A1, “COMPOUNDS, TARGETS, AND METHODS FOR MODULATING LYTIC GRANULE CONVERGENCE IN CYTOTOXIC CELLS TO PROMOTE BYSTANDER KILLING IN CELLULAR THERAPIES” (THE TRUSTEES OF COLUMBIA UNIVERSITY IN THE CITY OF NEW YORK, priority 2022, published 2025):

Columns and labels:
Assay type in all cases: cell-based
YTS cells [1] = assay: Number of MTOC (alpha-tubulin hyper densities) in YTS cells treated with PLK4 inhibitors; settings: 5 days, Centrinone 5 nM or CFI400495 50 nM
Description: (§1) Centrinone and CFI400495 are high affinity and selective PLK4 inhibitors that induce depletion of the centrosome and cell cycle arrest. YTS cells were treated for 5 days with Centrinone 5 nM or CFI400495 50 nM. […] For this experiment, 5×10^5 cells/ml YTS cells were incubated during 5 days Centrinone 5 nM or CFI400495 50 nM, every 24 hours the media were replaced with fresh media containing similar amounts of the drug. On day 5, cells were assessed by microscopy for gamma-tubulin or alpha-tubulin.

YTS cells [2] = assay: Confocal microscopy of granule dispersion in YTS cells after Centrinone or CFI400495; settings: YTS cells after treatment with Centrinone or CFI400495
Description: as §1

YTS cells [3] = assay: CD107a degranulation of treated YTS cells after conjugation with 721.221 target cells; settings: 5 days, Centrinone 5 nM or CFI400495 50 nM
Description: CD107a (also known as LAMP-1) is the standard to measure the process of degranulation. The more CD107a is expressed on the surface of the cell after stimulation, the more granules have been released. This is limited to the immunological synapse, in part secondary to the convergence process. CD107a upregulation is measured via flow cytometry after PMA/lonomycin activation and can be measured following target cell conjugation. […] The latter requires synapse formation and engagement of receptors for downstream activation signaling. Differences in results between these two approaches (target cell conjugation versus PMA/lonomycin) map the candidate's impact to early (synapse formation and signaling) or late (mechanics of) degranulation.
as §1

SMILES: COc1ccc2c(c1)[C@]1(C[C@H]1c1ccc3c(/C=C/c4ccc(CN5C[C@@H](C)O[C@@H](C)C5)cc4)n[nH]c3c1)C(=O)N2.O=C(O)/C=C/C(=O)O [CFI400495, Spiro[cyclopropane-1,3′-[3H]indol]-2′(1′H)-one, 2-[3-[(E)-2-[4-[[(2R,6S)-2,6-dimethyl-4-morpholinyl]methyl]phenyl]ethenyl]-1H-indazol-6-yl]-5′-methoxy-, (1R,2S)-, (2E)-2-butenedioate (1:1)]
- number of MTOC (alpha Tubulin hyper densities) (YTS cells [1]): increase number of mTOC
- granule dispersion (confocal microscopy images) (YTS cells [2]): more disperse granules
- degranulation (CD107a expression) (YTS cells [3]): increases degranulation
